Test results reported in ChEMBL document CHEMBL4000149, “The effect of glycine replacement with flexible ω-amino acids on the antimicrobial and haemolytic activity of an amphipathic cyclic heptapeptide” (Eur J Med Chem, 2015).
Values after ≈ are worked out from the molar mass of the structure shown. Numbered stars: 1 amine (or outer) side, 2 acyl side, 3 side chain; on linkers, the order of the positions; unused ones are H or OH. Bridge positions count the residues as written; N and C are the ends. Square brackets hold non-standard residues; d marks the D form. Peptide text beside a SMILES is read from it. ξ: configuration not given here. NH(CH2)9CO = O=C(CCCCCCCCCN[*:1])[*:2]; 2Nal = N[C@@H](Cc1ccc2ccccc2c1)C(=O)O; X1 = NC(CCN[*:2])C(=O)[*:1]; ξAoc(2) = CCCCCCC(N)C(=O)O; Aoc = NCCCCCCCC(=O)O; ξDab = NCCC(N)C(=O)O; Ahx = NCCCCCC(=O)O; GABA = NCCCC(=O)O

Assays:
[1] = tested on: Escherichia coli; assay: Antimicrobial activity against Escherichia coli ATCC 25922 by tube dilution method; assay type: functional
[2] = tested on: Staphylococcus aureus; assay: Antimicrobial activity against methicillin-resistant Staphylococcus aureus ATCC 33591 by tube dilution method; assay type: functional
[3] = tested on: Acinetobacter baumannii; assay: Antimicrobial activity against multidrug-resistant Acinetobacter baumannii ATCC BAA-1605 by tube dilution method; assay type: functional
[4] = tested on: Candida albicans; assay: Antifungal activity against Candida albicans ATCC 200955 by tube dilution method; assay type: functional
[5] = tested on: Pseudomonas aeruginosa; assay: Antimicrobial activity against Pseudomonas aeruginosa ATCC 27853 by tube dilution method; assay type: functional
[6] = Toxicity in human erythrocytes assessed as hemolysis at 150 uM after 1 hr; assay type: cell-based, Erythrocyte; conditions: read-out: Activity
[7] = tested on: Klebsiella pneumoniae; assay: Antimicrobial activity against multidrug-resistant Klebsiella pneumoniae ATCC 700603 by tube dilution method; assay type: functional
[8] = Toxicity in human erythrocytes assessed as hemolysis after 1 hr; assay type: cell-based, Erythrocyte
[9] = tested on: Enterococcus faecium; assay: Antimicrobial activity against vancomycin-resistant Enterococcus faecium ATCC 700221 by tube dilution method; assay type: functional

CC[C@H](C)[C@@H]1NC(=O)[C@H](Cc2ccc3ccccc3c2)NC(=O)[C@H](CCCNC(=N)N)NC(=O)[C@H]([C@@H](C)O)NC(=O)CCCCCCCNC(=O)[C@H](Cc2ccc3ccccc3c2)NC(=O)[C@H](CCCNC(=N)N)NC1=O (cyclo([2Nal][Aoc]TR[2Nal]IR))
MIC [1]: 128 µM (≈ 136 µg/mL) | MIC [2]: 32 µM (≈ 34 µg/mL) | MIC [3]: 128 µM (≈ 136 µg/mL) | MIC [4]: 64 µM (≈ 68 µg/mL) | MIC [5]: > 128 µM | hemolysis at 1 h, 150 µM [6]: 10% | MIC [7]: > 128 µM | EC50 at 1 hr [8]: > 150 µM | MIC [9]: 16 µM (≈ 17 µg/mL)

CC(C)C[C@@H]1NC(=O)CNC(=O)[C@H](Cc2ccc3ccccc3c2)NC(=O)[C@H](CCCNC(=N)N)NC(=O)[C@@H]2CCCN2C(=O)[C@H](Cc2ccc3ccccc3c2)NC(=O)[C@H](CCCNC(=N)N)NC1=O (cyclo([2Nal]GLR[2Nal]PR))
MIC [1]: > 128 µM | MIC [2]: 64 µM (≈ 62.3 µg/mL) | MIC [3]: > 128 µM | MIC [4]: 128 µM (≈ 125 µg/mL) | MIC [5]: > 128 µM | hemolysis at 1 h, 150 µM [6]: < 8% | MIC [7]: > 128 µM | EC50 at 1 hr [8]: > 150 µM | MIC [9]: 32 µM (≈ 31.2 µg/mL)

CC(C)C[C@@H]1NC(=O)CNC(=O)[C@H](Cc2ccccc2)NC(=O)[C@H](CCCCN)NC(=O)[C@H](CC(C)C)NC(=O)[C@H](Cc2ccccc2)NC(=O)[C@H](CCCCN)NC1=O (cyclo(FGLKFLK))
MIC [1]: 128 µM (≈ 107 µg/mL) | MIC [2]: > 128 µM | MIC [3]: 128 µM (≈ 107 µg/mL) | MIC [4]: > 128 µM | MIC [5]: > 128 µM | hemolysis at 1 h, 150 µM [6]: < 8% | MIC [7]: > 128 µM | EC50 at 1 hr [8]: > 150 µM | MIC [9]: 128 µM (≈ 107 µg/mL)

CC(C)C[C@@H]1NC(=O)CCCCCCCCCNC(=O)[C@H](Cc2ccc3ccccc3c2)NC(=O)[C@H](CCCNC(=N)N)NC(=O)[C@H](CC(C)C)NC(=O)[C@H](Cc2ccc3ccccc3c2)NC(=O)[C@H](CCCNC(=N)N)NC1=O (cyclo([2Nal]LR[2Nal][NH(CH2)9CO]LR))
MIC [1]: 64 µM (≈ 70.6 µg/mL) | MIC [2]: 4 µM (≈ 4.41 µg/mL) | MIC [3]: 16 µM (≈ 17.6 µg/mL) | MIC [4]: 16 µM (≈ 17.6 µg/mL) | MIC [5]: > 64 µM | hemolysis at 1 h, 150 µM [6]: 100% | MIC [7]: > 64 µM | EC50 at 1 hr [8]: 15 µM | MIC [9]: 4 µM (≈ 4.41 µg/mL)

CCCCCCC1NC(=O)[C@H](Cc2ccc3ccccc3c2)NC(=O)[C@H](CCCNC(=N)N)NC(=O)[C@H](CC(C)C)NC(=O)C(N)CCNC(=O)C(N)CCNC(=O)[C@H](Cc2ccc3ccccc3c2)NC(=O)[C@H](CCCNC(=N)N)NC1=O (stereo partly specified) (H-[ξDab]LR[2Nal][ξAoc(2)]R[2Nal]; linker 1-C via X1)
MIC [1]: 16 µM (≈ 18.6 µg/mL) | MIC [2]: 4 µM (≈ 4.65 µg/mL) | MIC [3]: 64 µM (≈ 74.3 µg/mL) | MIC [4]: 8 µM (≈ 9.29 µg/mL) | MIC [5]: 32 µM (≈ 37.2 µg/mL) | hemolysis at 1 h, 150 µM [6]: 100% | MIC [7]: 64 µM (≈ 74.3 µg/mL) | EC50 at 1 hr [8]: 55 µM | MIC [9]: 4 µM (≈ 4.65 µg/mL)

CC(C)C[C@@H]1NC(=O)[C@H](Cc2ccc3ccccc3c2)NC(=O)[C@H](CCCNC(=N)N)NC(=O)[C@H](CC(C)C)NC(=O)[C@@H](N)CCCCNC(=O)[C@H](Cc2ccc3ccccc3c2)NC(=O)[C@H](CCCNC(=N)N)NC1=O (H-KLR[2Nal]LR[2Nal]; lactam 1-C)
MIC [1]: 32 µM (≈ 34 µg/mL) | MIC [2]: 8 µM (≈ 8.49 µg/mL) | MIC [3]: 32 µM (≈ 34 µg/mL) | MIC [4]: 8 µM (≈ 8.49 µg/mL) | MIC [5]: 32 µM (≈ 34 µg/mL) | hemolysis at 1 h, 150 µM [6]: 51% | MIC [7]: 32 µM (≈ 34 µg/mL) | EC50 at 1 hr [8]: 150 µM | MIC [9]: 4 µM (≈ 4.25 µg/mL)

CC(C)C[C@@H]1NC(=O)C(N)CCNC(=O)C(N)CCNC(=O)[C@H](Cc2ccc3ccccc3c2)NC(=O)[C@H](CCCNC(=N)N)NC(=O)[C@H](CC(C)C)NC(=O)[C@H](Cc2ccc3ccccc3c2)NC(=O)[C@H](CCCNC(=N)N)NC1=O (stereo partly specified) (H-[ξDab]LR[2Nal]LR[2Nal]; linker 1-C via X1)
MIC [1]: 32 µM (≈ 36.3 µg/mL) | MIC [2]: 16 µM (≈ 18.1 µg/mL) | MIC [3]: 128 µM (≈ 145 µg/mL) | MIC [4]: 16 µM (≈ 18.1 µg/mL) | MIC [5]: 32 µM (≈ 36.3 µg/mL) | hemolysis at 1 h, 150 µM [6]: < 8% | MIC [7]: 128 µM (≈ 145 µg/mL) | EC50 at 1 hr [8]: > 450 µM | MIC [9]: 8 µM (≈ 9.07 µg/mL)

CC(C)C[C@@H]1NC(=O)CCCNC(=O)[C@H](Cc2ccc3ccccc3c2)NC(=O)[C@H](CCCNC(=N)N)NC(=O)[C@H](CC(C)C)NC(=O)[C@H](Cc2ccc3ccccc3c2)NC(=O)[C@H](CCCNC(=N)N)NC1=O (cyclo([2Nal][GABA]LR[2Nal]LR))
MIC [1]: 64 µM (≈ 65.2 µg/mL) | MIC [2]: 16 µM (≈ 16.3 µg/mL) | MIC [3]: 128 µM (≈ 130 µg/mL) | MIC [4]: 16 µM (≈ 16.3 µg/mL) | MIC [5]: 128 µM (≈ 130 µg/mL) | hemolysis at 1 h, 150 µM [6]: 22% | MIC [7]: 128 µM (≈ 130 µg/mL) | EC50 at 1 hr [8]: 230 µM | MIC [9]: 8 µM (≈ 8.15 µg/mL)

CC(C)C[C@@H]1NC(=O)CCCCCNC(=O)[C@H](Cc2ccc3ccccc3c2)NC(=O)[C@H](CCCNC(=N)N)NC(=O)[C@H](CC(C)C)NC(=O)[C@H](Cc2ccc3ccccc3c2)NC(=O)[C@H](CCCNC(=N)N)NC1=O (cyclo([2Nal][Ahx]LR[2Nal]LR))
MIC [1]: 32 µM (≈ 33.5 µg/mL) | MIC [2]: 8 µM (≈ 8.37 µg/mL) | MIC [3]: 64 µM (≈ 67 µg/mL) | MIC [4]: 16 µM (≈ 16.7 µg/mL) | MIC [5]: 64 µM (≈ 67 µg/mL) | hemolysis at 1 h, 150 µM [6]: 75% | MIC [7]: 128 µM (≈ 134 µg/mL) | EC50 at 1 hr [8]: 115 µM | MIC [9]: 4 µM (≈ 4.19 µg/mL)
